Results taken from patent publication US20040006070A1, “Intraspinal continuous infusion of midazolam hydrochloride for the treatment of pain” (priority 2002, published 2004).
Counter-ions that a name gives are not always drawn.

Assay: Bloodwork: complete blood count, electrolytes, extended blood chemistry
Format: in vivo, sheep
Conditions: for Total Bili: ref 0.14-0.32; for K+: ref 3.9-5.4; for Phos: ref 5-7.3; for Total Prot: ref 6-7.9
Description: Indirect blood pressure, pulse recording, pain testing (mechanical stimulus device, cold and warm water baths see description in procedure) and weight were taken on days 1, 3, 7, 15, 22, 29, 36, and 43. Venous blood samples (15 ml drawn from the jugular vein with Vacutainer brand blood collection tubes) for complete blood count, electrolytes, and extended blood chemistry were drawn on days 1, 15, and 43 (mild procedure only light hand restraint necessary).

[1] = sheep Chicken Hawk #87, 5 mg/day, Baseline
[2] = sheep Chicken Hawk #87, 5 mg/day, Day 1

Cc1ncc2n1-c1ccc(Cl)cc1C(c1ccccc1F)=NC2 [Midazolam, midazolam hydrochloride]
MCH (sheep #498, 10 mg/day, Day 43): 9.3 pg
MCHC (sheep #498, 10 mg/day, Day 43): 30.3 g/dL
MCV (sheep #498, 10 mg/day, Day 43): 30.9 fL
Na+ (sheep #498, 10 mg/day, Day 43): 148 mEq/l
RBC (sheep #498, 10 mg/day, Day 43): 1.003e+07 µL⁻¹
WBC (sheep #498, 10 mg/day, Day 43): 9700 µL⁻¹
Total Bili (sheep #498, 10 mg/day, Day 43): 0.1 mg/dL
Creatinine (sheep #498, 10 mg/day, Day 43, ref 1-2.7): 1.5 mg/dL
Albumin (sheep #498, 10 mg/day, Day 43, ref 2.4-3): 3.6 g/dL
K+ (sheep #498, 10 mg/day, Day 43): 4.0 mEq/l
Phos (sheep #498, 10 mg/day, Day 43): 5.8 Mg/dl
Total Prot (sheep #498, 10 mg/day, Day 43): 6.1 g/dL
Platlet Count (sheep #498, 10 mg/day, Day 43, result in words): Ade-
ALT (sheep #518, 5 mg/day, Day 1): 12.0 U/L
AST (sheep #518, 5 mg/day, Day 1): 112 U/L
Alk Phos (sheep #518, 5 mg/day, Day 1): 157 U/L
BUN (sheep #518, 5 mg/day, Day 1): 15 mg/dL
CPK (sheep #518, 5 mg/day, Day 1): 148 U/L
Cholesterol (sheep #518, 5 mg/day, Day 1): 96 mg/dL
Differential Count: Eosin (sheep #518, 5 mg/day, Day 1): 1%
Differential Count: Lymph (sheep #518, 5 mg/day, Day 1): 29%
Differential Count: Seg (sheep #518, 5 mg/day, Day 1): 70%
Gamma GT (sheep #518, 5 mg/day, Day 1): 79 U/L
Glucose (sheep #518, 5 mg/day, Day 1): 8.8 mg/dL
Hct (sheep #518, 5 mg/day, Day 1): 35.0%
Hgb (sheep #518, 5 mg/day, Day 1): 12.2 g/dL
MCH (sheep #518, 5 mg/day, Day 1): 9.6 pg
MCHC (sheep #518, 5 mg/day, Day 1): 31.4 G/dl
MCV (sheep #518, 5 mg/day, Day 1): 30.6 fL
Na+ (sheep #518, 5 mg/day, Day 1): 154 mEq/l
Platlet Count (sheep #518, 5 mg/day, Day 1): 642000 µL⁻¹
RBC (sheep #518, 5 mg/day, Day 1): 1.144e+07 µL⁻¹
WBC (sheep #518, 5 mg/day, Day 1): 8400 µL⁻¹
Total Bili (sheep #518, 5 mg/day, Day 1): 0.2 mg/dL
Creatinine (sheep #518, 5 mg/day, Day 1, ref 1-2.7): 1.1 mg/dL
Albumin (sheep #518, 5 mg/day, Day 1, ref 2.4-3): 3.6 G/dl
K+ (sheep #518, 5 mg/day, Day 1): 4.9 mEq/l
Phos (sheep #518, 5 mg/day, Day 1): 7.2 mg/dL
Total Prot (sheep #518, 5 mg/day, Day 1): 7.0 G/dl
ALT (sheep #518, 5 mg/day, Day 3): 10.0 U/L
AST (sheep #518, 5 mg/day, Day 3): 99 U/L
Alk Phos (sheep #518, 5 mg/day, Day 3): 99 U/L
BUN (sheep #518, 5 mg/day, Day 3): 5 mg/dL
CPK (sheep #518, 5 mg/day, Day 3): 834 U/L
Cholesterol (sheep #518, 5 mg/day, Day 3): 87 mg/dL
Differential Count: Atyp lym (sheep #518, 5 mg/day, Day 3): 1%
Differential Count: Eosin (sheep #518, 5 mg/day, Day 3): 1%
Differential Count: Lymph (sheep #518, 5 mg/day, Day 3): 47%
Differential Count: Seg (sheep #518, 5 mg/day, Day 3): 51%
Gamma GT (sheep #518, 5 mg/day, Day 3): 79 U/L
Glucose (sheep #518, 5 mg/day, Day 3): 122 mg/dL
Hct (sheep #518, 5 mg/day, Day 3): 33.0%
Hgb (sheep #518, 5 mg/day, Day 3): 11.3 g/dL
MCH (sheep #518, 5 mg/day, Day 3): 9.3 pg
MCHC (sheep #518, 5 mg/day, Day 3): 30.1 G/dl
MCV (sheep #518, 5 mg/day, Day 3): 30.7 fL
Na+ (sheep #518, 5 mg/day, Day 3): 151 mEq/l
Platlet Count (sheep #518, 5 mg/day, Day 3): 546000 µL⁻¹
RBC (sheep #518, 5 mg/day, Day 3): 1.075e+07 µL⁻¹
WBC (sheep #518, 5 mg/day, Day 3): 6400 µL⁻¹
Total Bili (sheep #518, 5 mg/day, Day 3): 0.1 mg/dL
Creatinine (sheep #518, 5 mg/day, Day 3, ref 1-2.7): 1.4 mg/dL
Albumin (sheep #518, 5 mg/day, Day 3, ref 2.4-3): 3.8 G/dl
K+ (sheep #518, 5 mg/day, Day 3): 4.4 mEq/l
Phos (sheep #518, 5 mg/day, Day 3): 5.7 mg/dL
Total Prot (sheep #518, 5 mg/day, Day 3): 6.6 G/dl
ALT (sheep #518, 5 mg/day, Day 15): 13.0 U/L
AST (sheep #518, 5 mg/day, Day 15): 74 U/L
Alk Phos (sheep #518, 5 mg/day, Day 15): 100 U/L
BUN (sheep #518, 5 mg/day, Day 15): 13 mg/dL
CPK (sheep #518, 5 mg/day, Day 15): 172 U/L
Cholesterol (sheep #518, 5 mg/day, Day 15): 83 mg/dL
Differential Count: Eosin (sheep #518, 5 mg/day, Day 15): 5%
Differential Count: Lymph (sheep #518, 5 mg/day, Day 15): 62%
Differential Count: Seg (sheep #518, 5 mg/day, Day 15): 33%
Gamma GT (sheep #518, 5 mg/day, Day 15): 90 U/L
Glucose (sheep #518, 5 mg/day, Day 15): 74 mg/dL
Hct (sheep #518, 5 mg/day, Day 15): 33.0%
Hgb (sheep #518, 5 mg/day, Day 15): 11.6 g/dL
MCH (sheep #518, 5 mg/day, Day 15): 9.6 pg
MCHC (sheep #518, 5 mg/day, Day 15): 31.3 G/dl
MCV (sheep #518, 5 mg/day, Day 15): 30.7 fL
Na+ (sheep #518, 5 mg/day, Day 15): 151 mEq/l
Platlet Count (sheep #518, 5 mg/day, Day 15): 533000 µL⁻¹
RBC (sheep #518, 5 mg/day, Day 15): 1.208e+07 µL⁻¹
WBC (sheep #518, 5 mg/day, Day 15): 5300 µL⁻¹
Total Bili (sheep #518, 5 mg/day, Day 15): 0.1 mg/dL
Creatinine (sheep #518, 5 mg/day, Day 15, ref 1-2.7): 1.6 mg/dL
Albumin (sheep #518, 5 mg/day, Day 15, ref 2.4-3): 4.1 G/dl
K+ (sheep #518, 5 mg/day, Day 15): 4.6 mEq/l
Phos (sheep #518, 5 mg/day, Day 15): 5.1 mg/dL
Total Prot (sheep #518, 5 mg/day, Day 15): 6.7 G/dl
ALT (sheep #518, 5 mg/day, Day 43): 12.0 U/L
AST (sheep #518, 5 mg/day, Day 43): 76 U/L
Alk Phos (sheep #518, 5 mg/day, Day 43): 89 U/L
BUN (sheep #518, 5 mg/day, Day 43): 7 mg/dL
CPK (sheep #518, 5 mg/day, Day 43): 787 U/L
Cholesterol (sheep #518, 5 mg/day, Day 43): 69 mg/dL
Differential Count: Atyp lym (sheep #518, 5 mg/day, Day 43): 1%
Differential Count: Eosin (sheep #518, 5 mg/day, Day 43): 4%
Differential Count: Lymph (sheep #518, 5 mg/day, Day 43): 48%
Differential Count: Seg (sheep #518, 5 mg/day, Day 43): 47%
Gamma GT (sheep #518, 5 mg/day, Day 43): 68 U/L
Glucose (sheep #518, 5 mg/day, Day 43): 89 mg/dL
Hct (sheep #518, 5 mg/day, Day 43): 44.6%
Hgb (sheep #518, 5 mg/day, Day 43): 13.7 g/dL
MCH (sheep #518, 5 mg/day, Day 43): 9.6 pg
MCHC (sheep #518, 5 mg/day, Day 43): 30.7 G/dl
MCV (sheep #518, 5 mg/day, Day 43): 31.1 fL
Na+ (sheep #518, 5 mg/day, Day 43): 152 mEq/l
Platlet Count (sheep #518, 5 mg/day, Day 43): 448000 µL⁻¹
RBC (sheep #518, 5 mg/day, Day 43): 1.254e+07 µL⁻¹
WBC (sheep #518, 5 mg/day, Day 43): 4800 µL⁻¹
Total Bili (sheep #518, 5 mg/day, Day 43): 0.1 mg/dL
Creatinine (sheep #518, 5 mg/day, Day 43, ref 1-2.7): 1.7 mg/dL
Albumin (sheep #518, 5 mg/day, Day 43, ref 2.4-3): 3.5 G/dl
K+ (sheep #518, 5 mg/day, Day 43): 4.6 mEq/l
Phos (sheep #518, 5 mg/day, Day 43): 6.4 mg/dL
Total Prot (sheep #518, 5 mg/day, Day 43): 6.2 G/dl
Differential Count: Atyp lym [1]: 0%
Differential Count: Baso [1]: 0%
Differential Count: Eosin [1]: 2%
Differential Count: Lymph [1]: 41%
Differential Count: Mono [1]: 4%
Differential Count: Seg [1]: 53%
Hct [1]: 31.5%
Hgb [1]: 10.8 g/dL
MCH [1]: 11.0 pg
MCHC [1]: 34.2 g/dL
MCV [1]: 32.3 fL
Platlet Count [1]: 848000 µL⁻¹
RBC [1]: 9.77e+06 µL⁻¹
WBC [1]: 6180 µL⁻¹
ALT [2]: 4 U/L
AST [2]: 63 U/L
Albumin [2]: 3.2 g/dL
Alk Phos [2]: 54 U/L
BUN [2]: 14 mg/dL
CPK [2]: 163 U/L
Cholesterol [2]: 71 mg/dL
Creatinine [2]: 1.3 mg/dL
Differential Count: Atyp lym [2]: 0%
Differential Count: Baso [2]: 0%
Differential Count: Eosin [2]: 2%
Differential Count: Lymph [2]: 55%
Differential Count: Mono [2]: 7%
Differential Count: Seg [2]: 36%
Gamma GT [2]: 55 U/L
